Measured values from publication PMC11865978, “Cellular Activity of CQWW Nullomer-Derived Peptides” (ACS Omega, 2025).
Non-standard residues stand in square brackets, D forms with d. Residues, ends and D or L forms follow the SMILES beside them. No end group written: not given here.

What was measured:
GCGR-E34 = assay type: cell-based, human; conditions: 72 h
Procedure: (§1) Peptides were tested in an automated image-based high-content[42] cell painting[43],[44] assay that was originally developed to explore the mechanism of action of pharmacological and genetic perturbations within cells,[45] as well as a live cell imaging assay against six patient-derived glioblastoma cell lines (GCGR-E13, GCGR-E28, GCGR-E21, GCGR-E57, GCGR-E31, and GCGR-E34), covering classical, mesenchymal, and proneural subtypes, respectively (see Methods and Figure 1B–D), along with a healthy human fetal neuronal stem cell line (GCGR-NS9FB_B).
(§2) Cell survival was quantified by nuclei counts from the Hoechst dye-stained nuclei and IC50 values calculated along with 95% confidence intervals (Figure 1B; see Table S2 for full details). […]
(§3) High Content Phenotypic Screening assays
(§4) Cell lines (glioma stem cell lines and normal foetal neural stem cells) were seeded on laminin (10 µg/mL) coated 384-well plates (Greiner Bio-One, 781091) at 1,000 cells/well and incubated overnight at 37 °C and 5% CO2. Aqueous peptide solutions (10 mM) were further diluted to 1 mM in water containing 10 % glycerol and 0.01 % TX-100. […]
(§5) The cells were placed in an IncuCyte live cell imager (Essen BioScience) and imaged every three hours for 72 hours. Prior to fixation, the plates were removed from the IncuCyte and stained with Mitrotracker DeepRed (Invitrogen, M22426, 300 nM, 30 minutes). Cells were then fixed using 4 % formaldehyde and permeabilized with 0.1 % TX-100 in PBS. The cells were stained with ‘Cell Painting’ […]
(§6) assay reagents1: Hoechst 33342 (10 mg/mL stock, Molecular Probes, 1:5000), SYTO14 […]
(§7) BSA/PBS. The plates were imaged using an ImageXpress high content microscope (Molecular Devices). Cells were imaged with a 20× objective, covering 6 fields-of-view in each well. The data was then analyzed using a custom CellProfiler software pipeline using the University of Edinburgh high performance computing cluster. Dose response plots were calculated using HC StratomineR (corelifeanalytics.com). Nuclei count data was analyzed separately to generate cell survival metrics (normalized to aqueous glycerol/TX -100 control). […]

GCGR-E13 = assay type: cell-based, human; conditions: 72 h
Procedure: as §1, §2, §3, §4, §5, §6, §7

GCGR-E21 = assay type: cell-based, human; conditions: 72 h
Procedure: as §1, §2, §3, §4, §5, §6, §7

GCGR-E31 = assay type: cell-based, human; conditions: 72 h
Procedure: as §1, §2, §3
(§8) Cell lines (glioma stem cell lines and normal foetal neural stem cells) were seeded on laminin (10 µg/mL) coated 384-well plates (Greiner Bio-One, 781091) at 1,000 cells/well and incubated overnight at 37 °C and 5% CO2. Aqueous peptide solutions (10 mM) were further diluted to 1 mM in water containing 10 % glycerol and 0.01 % TX-100. Cells were dosed using a D300 digital dispenser (Tecan) by 10-point dose response (30 µM – 1 µM) in triplicate and with aqueous glycerol/TX-100 as control. The cells were placed in an IncuCyte live cell imager (Essen BioScience) and imaged every three hours for 72 hours. Prior to fixation, the plates were removed from the IncuCyte and stained with Mitrotracker DeepRed (Invitrogen, M22426, 300 nM, 30 minutes). Cells were then fixed using 4 % formaldehyde and permeabilized with 0.1 % TX-100 in PBS. The cells were stained with ‘Cell Painting’ […]
as §6, §7

GCGR-E28 = assay type: cell-based, human; conditions: 72 h
Procedure: as §1, §2, §3, §8, §6, §7

GCGR-E57 = assay type: cell-based, human; conditions: 72 h
Procedure: as §1, §2, §3, §8, §6, §7

GSK-3 = test: Reverse phase protein array (RPPA); assay type: cell-based, human; conditions: peptides at 3 μM, 3 h and 24 h (peptide 7: 24 h only), seven cell lines; fold difference vs water control
Excerpt: The phenotypic effect of the peptides was visualized by live cell imaging (Figure 1C, IncuCyte live cell imager) and also quantified via image analysis of cells labeled with the cell painting reagents (see Supporting Information) followed by image analysis using Cell Profiler (cellprofiler.org). Multiparametric outputs from Cell Profiler were processed using Phenonaut[46] [v 2.0.3] (see Jupyter notebook ‘Phenonaut_processing_of_nullomer_data.ipynb’ in the Aminonaut repository for methods and code used). […] Peptides 2, 5, and 7 were deemed to have the most merit for mode of action determination using reverse phase protein arrays (RPPAs) (see Supporting Information for methods). […]
growth and stemness was further supported by the addition of laminin extracellular matrix (Cultrex 3446-005-01, 4-10 mg/mL) to the growth media and to create pre-coated flasks/384w plates. Cells were cultured in T75 cm2 flasks and passaged as follows: Glioma stem cells generally grow slowly (~60hrs doubling time, excepting GCGR-E57 cells ~24hrs) and lag phase was exacerbated by sparse seeding. Cell confluence is generally ~80 -90% prior to passaging, whereby the culture media was aspirated, the cells washed (PBS) and Accutase solution (Sigma A6964, 1 mL) was added to detach the cells, which were then incubated at 37 °C for <5 minutes. Cells were resuspended in media and centrifuged for 3 minutes at 300 × g. Resuspended cells were typically split 1:5, 1:8 (GCGR-E57 cells) and 1:2, 1:4 for the remainder of cell lines, depending on requirements . Cells were passaged every 4-7 days to maintain health and growth and discarded after 3 months, whereupon a fresh batch of cells […]
Reverse Phase Protein Array (RPPA)
Culture media was aspirated and cells washed with wash media. Accutase solution (1mL) was used to detach the cells which were then incubated at 37 °C for 5 minutes. 10 mL of wash media was added, and the cells were pipetted into a 15 mL conical tube, after which they were centrifuged for 3 minutes at 300× g to form a pellet. Supernatant was aspirated, and cells resuspended in 5 mL of wash media. A 10 μL sample of the cell suspension was pipetted onto the reading surface of a DeNovix CellDrop automated cell counter and the reading was used to dilute the suspension in complete media to 250,000 cells/mL. 2 mL of this suspension was added to each well of 6-well plates to seed plates at 500,000 cells per well. 2 plates of each cell type (GCGR-E13, GCGR-E21, GCGR-E28, GCGR-E31, GCGR-E34, GCGR-E57 and GCGR-NS9FB_B) were seeded, one each for two nullomer dosage […]
timepoints (3 h and 24 h). The cells were incubated in the 6-well plates overnight, and dosing was carried out in the following morning. […]

GCGR-NS9FB_B = assay type: cell-based, human; conditions: 72 h
Procedure: as §1, §2, §3, §8, §6, §7

NCI-60 panel = conditions: 60 cell lines from human cancers of nine organs; cited from earlier work
Excerpt: (§9) Closely related to nullomer peptides, rarely observed amino acid stretches have also been studied by Capone et al., who assert that the minimal sufficient antigenic determinants of a protein could be encoded in just five rarely seen amino acids.[20] Complementing this, Patel et al. noted that these rare sequences could be used to enhance antigen-specific immune responses when dosed alongside adjuvant vaccines.[21] It was also noted by Koulouras et al. that human viruses rarely share human nullomers, facilitating host mimicry and immune evasion,[22] an interesting example of this being highligh ...

[1] = tested on: normal cell lines and cancer cell lines; conditions: cited from earlier work
Excerpt: as §9

[2] = tested on: triple-negative breast cancer mouse model; conditions: cited from earlier work
Excerpt: as §9

Row | IC50 (GCGR-E34) | IC50 (GCGR-E13) | IC50 (GCGR-E21) | IC50 (GCGR-E31) | IC50 (GCGR-E28) | IC50 (GCGR-E57) | Molecule | GSK-3 regulation in RPPA (GSK-3) | IC50 (GCGR-NS9FB_B) | lethal effect on NCI-60 panel (NCI-60 panel) | mitochondrial impairment [1] | gene expression by transcriptomics in triple-negative breast cancer mouse model [2]
1 | 154 µM | > 100 µM | > 100 µM | > 100 µM | 168 µM | 108 µM | RRRRRCQW-NH2 [Peptide 10] |  |  |  |  | 
2 | 15.8 µM |  |  |  |  |  | RRRRR-NH2 [Peptide 15, reference compound] |  |  |  |  | 
3 |  | 151 µM | 279 µM |  | 86 µM |  | RRRRRAQWW-NH2 [Peptide 6] |  |  |  |  | 
4 | 114 µM | 110 µM | 158 µM | 74.3 µM | 72.6 µM | 99.5 µM | RRRRRQWW-NH2 [Peptide 11] |  |  |  |  | 
5 |  |  |  |  |  |  | NWMWC [pentamer peptide nullomer of Alileche et al] |  |  | lethal to a high fraction of oncogenic cell lines | caused mitochondrial impairment in both normal cell lines and cancer cell lines | 
6 | 8.6 µM | 13.1 µM | 12.8 µM | 11.8 µM | 10.9 µM | 9 µM | RRRRRWWQC-NH2 [Peptide 4] |  | 13.8 µM |  |  | 
7 |  |  |  |  |  |  | WCMNW [permutation of pentamer nullomer NWMWC, Alileche et al] |  |  | lethal to a high fraction of oncogenic cell lines | caused mitochondrial impairment in both normal cell lines and cancer cell lines | downregulation of key genes involved in the mitochondrial TCA cycle
8 | > 100 µM | 117 µM | 122 µM | 59.7 µM | 100 µM | > 100 µM | RRRRRMQWW-NH2 [Peptide 12] |  |  |  |  | 
9 | > 100 µM | 52 µM | 81.3 µM | 101 µM | 29.6 µM | 55.7 µM | RRRRRFQWW-NH2 [Peptide 13] |  |  |  |  | 
10 | > 100 µM | 52 µM | 132 µM | 123 µM | 58 µM | 119 µM | RRRRRHQWW-NH2 [Peptide 14] |  |  |  |  | 
11 | 100 µM | 100 µM | 75 µM | 238 µM | 100 µM | 100 µM | RRRRRCQAW-NH2 [Peptide 8] |  | 100 µM |  |  | 
12 | 15.8 µM | > 30 µM | > 30 µM | > 30 µM | > 30 µM | > 30 µM | RRRRRCQWA-NH2 [Peptide 9] |  | > 30 µM |  |  | 

Row | Molecule | IC50 (GCGR-E34) | IC50 (GCGR-E13) | IC50 (GCGR-E21) | IC50 (GCGR-E31) | IC50 (GCGR-E28) | IC50 (GCGR-E57) | GSK-3 regulation in RPPA (GSK-3) | IC50 (GCGR-NS9FB_B) | lethal effect on NCI-60 panel (NCI-60 panel) | mitochondrial impairment [1] | gene expression by transcriptomics in triple-negative breast cancer mouse model [2]
13 | N=C(N)NCCC[C@H](NC(=O)[C@H](CCCNC(=N)N)NC(=O)[C@H](CCCNC(=N)N)NC(=O)[C@@H](N)CCCNC(=N)N)C(=O)N[C@@H](CCCNC(=N)N)C(=O)N[C@H](CS)C(=O)N[C@H](CCC(N)=O)C(=O)N[C@H](Cc1c[nH]c2ccccc12)C(=O)N[C@H](Cc1c[nH]c2ccccc12)C(N)=O [Peptide 3] (H-RRRRR[dC][dQ][dW][dW]-NH2) | 5.3 µM | 6.9 µM | 7.5 µM | 8.7 µM | 8.4 µM | 5.4 µM | downregulation of GSK-3 | 9.7 µM |  |  | 
14 | RRRRRCAWW-NH2 [Peptide 7] | 6 µM | 10.6 µM | 11.2 µM | 12.1 µM | 9.7 µM | 6.3 µM | downregulation of GSK-3β | 11.9 µM |  |  | 
15 | N=C(N)NCCC[C@H](NC(=O)[C@H](CCCNC(=N)N)NC(=O)[C@H](CCCNC(=N)N)NC(=O)[C@@H](N)CCCNC(=N)N)C(=O)N[C@@H](CCCNC(=N)N)C(=O)N[C@H](Cc1c[nH]c2ccccc12)C(=O)N[C@H](Cc1c[nH]c2ccccc12)C(=O)N[C@H](CCC(N)=O)C(=O)N[C@H](CS)C(N)=O [Peptide 5] (H-RRRRR[dW][dW][dQ][dC]-NH2) | 17.6 µM | 13.6 µM | 16.3 µM | 15.7 µM | 13.2 µM | 9.9 µM | downregulation of GSK-3β | 15.9 µM |  |  | 
